The source of these data is patent EP0727211A1, “Use of src SH2 specific compounds to treat a bone resorption disease” (SMITHKLINE BEECHAM CORPORATION, priority 1995, dated 1996).

The target of assay [1] is human src SH2 domain (Homo sapiens, UniProt P12931). Briefly: SH2 domain / pY peptide binding assay (ELISA-based, 96 well plate), src SH2. The method, then: (§1) The inhibitory activity of compounds at the different human SH2 domains was determined in vitro using SH2 domains expressed as fusion proteins in E. coli. The SH2 domains used herein were the human forms of the src SH2 domain, Grb2 SH2 domain, lck SH2 domain, fyn SH2 domain, SH-PTP2 SH2 domain, p85 SH2 domain and hcp SH2 domain. The fusion proteins containing the src, lck and hcp SH2 domains were expressed as the general sequence: DET1-DET2-spacer-ek-SH2, where DETI, DET2, spacer, ek and SH2 are as described below. […] Monoclonal antibodies to various epitopes of HIV-1 gp120 (or gp160) are known in the art, see, for example U.S. Patent 5,166,050. One preferred example is monoclonal antibody 178.1 (see, […] et al., J. Immunol., 143:1832-1836 (1989)), which was prepared by immunization of mice with a yeast-expressed HIV-1 gp160 molecule from strain BH10 (Ratner et al., Nature, 313:277-284 (1985)). This tag was used for detection of expression (by Western blot), for purification of the protein (by affinity chromatography), and for configuring assays in which the fusion protein was captured or immobilized using the 178.1 antibody. DET2 is a hexahistidine sequence tag (SEQ ID NO: 2) which binds to nickel-containing resins and was used for purification purposes. Spacer (SEQ ID NO: 3) was utilized to design a BamH1 restriction site at the indicated position of the construct. The term -[…] to a recognition sequence (SEQ ID NO: 4) for the enterokinase protease which provides for the optional removal of the tags from the SH2 domain, thus producing an SH2 domain that contains no extraneous amino acids. SH2 domains which contain no extraneous amino acids are preferable to tagged protein for crystallography studies. SH2 refers to the SH2 domains of different proteins. Cloning, expression and purification of human src SH2 domain containing tags and an enterokinase proteolytic cleavage site (DET1-DET2-spacer-ek-src SH2). A DNA sequence encoding protein ek-src SH2 was PCR amplified from a cDNA clone containing the human src gene (c-src SH2 DNA sequence identical to that described in […]. and Hanafusa, H, 1983 Cell 32:881-890) using the following primers: [formula] The PCR product was digested with BamHI and XbaI, followed by isolation of the digested fragment on an agarose gel. […] In that vector, the BamHI site is located between the coding regions for DET2 and SH2, and the XbaI site is located after the 3' end of the SH2 coding region. The ligation reaction was used to transform E. coli M[…]^+. […] Cells were lysed at neutral pH by sonication in the […] of lysozyme. […] After washing the column with equilibration buffer (Tris buffer pH 8 containing 0.5 M NaCl) and the same buffer containing 15 mM imidazole, the protein was eluted in highly purified form with 25 mM imidazole in equilibration buffer. […] The binding assays for the SH2 domains and pY peptides were performed in an ELISA-based 96 well plate assay. In Millipore 96 well filter plates, hydrophilic Durapore® (pore size 0.65um Cat. No. MADVN6550), was added 2 ul (50% suspension) of Protein-G Sepharose (available from Pharmacia of N.J. Cat. […] The volume was brought to 100 ul with TBS-T (tris buffered saline plus 0.05% tween-20), incubated and shaken at room trmperature for 1 hr. then washed 1x with TBS-T (4°C). 90 ul of TBS-T were then added to each well. […] The assay plates were incubated until equilibrium binding was attained (3 hr at 4°C with shaking). […] The A490 of each ELISA plate was then determined. […]
Sequence of human src SH2 domain (Homo sapiens, UniProt P12931) (P12931 151-248): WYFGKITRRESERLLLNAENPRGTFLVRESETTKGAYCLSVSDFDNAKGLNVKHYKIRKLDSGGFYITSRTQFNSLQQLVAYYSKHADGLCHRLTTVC
On the technique in general: An ELISA detects its analyte on a solid surface through an enzyme-linked reagent.

Assay [2] relates to osteoclast mediated bone resorption. As to the kind of experiment: fetal rat long bone (FRLB) assay, 45calcium release. To be noted: inhibition of 45calcium release from fetal rat radii and ulnae, 48 hours culture with compound, n=4. The class given is cell-based, Sprague Dawley rats. The method, then: 4-[4-(4-Methylbenzoyl)benzoyl]phenylacetaldehyde (Compound 4) was tested for its potency to inhibit osteoclast mediated bone resorption in the fetal rat long bone (FRLB) assay as described in Raisz LG (1965) J Clin Invest 44: 103-116, Stern PH et al., (1979) Skeletal Research: An experimental Approach. New York:Academic Press, 21-59 and Votta BJ et al., (1994) Bone 15:533-538).
To perform the experiment timed-pregnant Sprague Dawley rats (Taconic Farms, Germantown, NY) were injected subcutaneously with 200 µCi of ^45CaCl2 on day 18 of gestation, housed overnight, then anesthetized with Innovar-Vet (Pittman-Moore, Mundelein, IL) and sacrificed by cervical dislocation. Fetuses were removed aseptically and radii and ulnae were dissected free of surrounding soft tissue and cartilaginous ends. The bones were cultured 18-24 hours in BGJb medium (Sigma) containing 1 mg/ml bovine serum albumin, then transferred to fresh medium and cultured for an additional 48 hours in the absence or presence of Compound 4. ^45Calcium released into the medium and total calcium in the bones were measured by liquid scintillation spectrometry. Data were expressed as the % ^45calcium released from treated bones as compared to corresponding control bones. Statistical differences were assessed by employing a one-way analysis of variance for non-paired samples. Data are presented as mean ± s.e.m., n=4. […]

The subject of assay [3] is human src SH2 domain. As to the kind of experiment: SH2 domain / pY peptide binding assay (ELISA-based, 96 well plate), src SH2. The settings on record: selectivity for src SH2 versus the other SH2 domains of Tables I and II. The method, then: as §1

Structures are written as SMILES. pIC50, pKi: −log10 of the molar value. Like-named read-outs stand apart in the source and are kept apart here.

With `N[C@@H](Cc1cc(Br)c(Oc2ccc(O)c(Cc3ccc(O)nn3)c2)c(Br)c1)C(=O)O` [Compound 2, L-3,5-Dibromo-3'-(6-oxo-3(1H)-pyridazinylmethyl)-thyronine], the pIC50 at human src SH2 domain [1] (read-out: Src (IC50); cloned human SH2 domain fusion protein; 0.1 uM biotinylated pY peptide; Table I) was below 3.52. In addition, on human src SH2 domain [1] (read-out: Src (Ki); Ki calculated from IC50 by the expanded equation; Table II), the pKi is below 3.00.
`Cc1ccc(C(=O)c2ccc(C(=O)c3ccc(CC=O)cc3)cc2)cc1` [Compound 4, 4-[4-(4-Methylbenzoyl)benzoyl]phenylacetaldehyde]: the pIC50 in assay [2] was 4.72.
Turning to `CCCCCCNC(=O)[C@H]1CC[C@H](CNC(=O)c2ccc([N+](=O)[O-])cc2)CC1` [Compound 7, 4-nitro-benzamido-trans-4-methyl-cyclohexyl-N-hexyl carboxamide], in the assay with human src SH2 domain [3], the “binding affinity/inhibitory concentration at the src SH2 domain than at other SH2 domains” value is reported as “greater than fifty-fold higher”. Also, the pKi at human src SH2 domain [1] (Ki calculated from IC50 by the expanded equation; Table II; read-out: Src (Ki)) was 4.70. The negative-log IC50 (pIC50) on human src SH2 domain [1] (cloned human SH2 domain fusion protein; 0.1 uM biotinylated pY peptide; Table I; read-out: Src (IC50)) was 5.13.

For orientation: pIC50 means the IC50 on a negative log10 scale, so that one unit is a factor of ten. The term pKi denotes the Ki on a negative log10 scale, so that one unit is a factor of ten.
